A short description of data set [1]: Physicochemical parameters (pKa, logP, logD).
Data set [2] is described as follows: physchem. To be noted: water.
Data set [3] can be described thus: physchem. To be noted: water, thermodynamic from solid.
Another data set deals with T1, Chk2 (Homo sapiens, UniProt O96017).
T1 construct: purchased Upstate Discovery Ltd
Kind of data set: Kinase inhibitory activity assay (Upstate, 33P-ATP). The class given is biochemical. Conditions: read-out: Inhibition of kinases in vitro, % at 30 nM. On the procedure: Where inhibition was high an IC50 was determined.

The subject of data set [4] is primary human mammary epithelial cells. Conditions: 24 h.

Structures can show the parent of a compound that is named as a salt.

These results are taken from US8399442B2, “Pharmaceutical compounds” (priority 2005, dated 2013).

As usually defined, the logP is a log measure of how a compound divides between an organic and an aqueous phase. A lower logP goes with lower lipophilicity. In general, logD refers to lipophilicity at a set pH, counting ionised and neutral species. Read a low logD as a more hydrophilic compound. By melting point is commonly meant the temperature, or range, at which the solid turns liquid. In general, solubility refers to the dissolved amount per volume that the medium holds. A low value points to a poorly soluble substance. As a reminder, the inhibition is the percentage by which the read-out fell short of the control.

T1 sequence (O96017 whole entry): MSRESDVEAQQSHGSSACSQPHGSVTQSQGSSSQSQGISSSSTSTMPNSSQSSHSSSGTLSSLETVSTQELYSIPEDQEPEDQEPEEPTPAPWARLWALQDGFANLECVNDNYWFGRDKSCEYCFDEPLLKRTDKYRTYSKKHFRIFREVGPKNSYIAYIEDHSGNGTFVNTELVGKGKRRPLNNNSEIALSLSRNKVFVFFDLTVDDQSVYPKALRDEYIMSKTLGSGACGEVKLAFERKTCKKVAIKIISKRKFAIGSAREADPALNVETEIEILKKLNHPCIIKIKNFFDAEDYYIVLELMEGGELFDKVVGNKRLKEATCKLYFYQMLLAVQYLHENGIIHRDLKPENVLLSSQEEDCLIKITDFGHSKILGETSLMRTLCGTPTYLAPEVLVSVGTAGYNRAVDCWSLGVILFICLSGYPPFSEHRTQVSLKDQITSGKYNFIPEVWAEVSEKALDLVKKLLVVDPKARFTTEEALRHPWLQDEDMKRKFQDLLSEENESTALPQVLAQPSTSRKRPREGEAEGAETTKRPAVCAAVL

Take “1-(2,6-difluorophenyl)-N-[3-(5-morpholin-4-ylmethyl-1H-benzimidazol-2-yl)-1H-pyrazol-4-yl]-urea”: in data set [1], the logP is listed as 3.24. This compound gave a logPion in data set [1] of 0.36. Also, the results for the log distribution coefficient (logD) in data set [1] (pH=6), in data set [1] (pH=6.5) and in data set [1] (pH=7.4) were 2.27, 2.68 and 3.11, respectively.
For the compound `O=C(Nc1c[nH]nc1-c1nc2cc(CN3CCOCC3)ccc2[nH]1)Nc1c(F)cccc1F` (as salt: hydrochloride) [1-(2,6-difluorophenyl)-N-[3-(5-morpholin-4-ylmethyl-1H-benzimidazol-2-yl)-1H-pyrazol-4-yl]-urea], the melting point is 190 °C.
`O=C(Nc1c[nH]nc1-c1nc2cc(CN3CCOCC3)ccc2[nH]1)NC1CC1` [Acetate]: the solubility in “physchem [2]” (thermodynamic from solid) is > 25 mg/mL; in “physchem [3]”, > 100 mg/mL.
With `O=C(Nc1c[nH]nc1-c1nc2cc(CN3CCOCC3)ccc2[nH]1)NC1CC1` [D-Gluconate], the solubility in the data set “physchem [2]” (thermodynamic from solid) is > 25 mg/mL.
As to `O=C(Nc1c[nH]nc1-c1nc2cc(CN3CCOCC3)ccc2[nH]1)NC1CC1` [D-Glucuronate], the solubility is > 25 mg/mL in “physchem [2]” and > 100 mg/mL in the data set “physchem [3]”. Moreover, the solubility at 20 h in the data set “physchem [2]” (thermodynamic from solid) is > 50 mg/mL.
Take `O=C(Nc1c[nH]nc1-c1nc2cc(CN3CCOCC3)ccc2[nH]1)NC1CC1` [compound of formula (I^0)]: the inhibition at 0.03 µM on Chk2 stood at 41%. Besides, in data set [4], the “effect of treatment on normal cells cf. tumor cells” value is “fewer become multinucleated or die after treatment, but instead undergo reversible G2/M arrest”.
